# Assay results as given in US4843087A (priority 1986, dated 1989).
# System: human rhinovirus (HRV) serotypes
# Assay: microbe, parasite or virus in culture
# Assay type: cell-based
# Settings: for MIC50: read-out: Rhinovirus MIC50; for IC (MIC80 of serotype panel): read-out: Rhinovirus MIC80
Structure (SMILES),MIC50 [µg/mL],IC (MIC80 of serotype panel) [µg/mL]
"Cc1cc(CCCCCCCOc2ccc(C3=NC(C)CO3)cc2Cl)on1 (stereo not shown) [17(b), 5-{7-[2-Chloro-4-(4,5-dihydro-4-methyl-2-oxazolyl)phenoxy]heptyl}-3-methylisoxazole]",0.89,26
"Cc1cc(CCCCCCCCOc2ccc(C3=NCCO3)cc2)on1 [18(b), 5-{8-[4-(4,5-Dihydro-2-oxazolyl)phenoxy]octyl}-3-methylisoxazole]",1.75,2.1
"Cc1cc(CCCCCCCOc2cccc(C3=NCCO3)c2)on1 [26(b), 5-{7-[3-(4,5-Dihydro-2-oxazolyl)phenoxy]heptyl}-3-methylisoxazole]",0.94,1.12
Cc1cc(CCCCCCCCOc2ccc(C3=NC(C)CO3)cc2Cl)on1 (stereo not shown) [27(b)],0.405,25.8
"Cc1cc(CCCCCOc2c(C)cc(-c3nc(C)c(C)o3)cc2C)on1 [118(c), 5-{5-[4-(4,5-Dimethyl-2-oxazolyl)-2,6-dimethylphenoxy]pentyl}-3-methylisoxazole]",0.37,0.84
"OCCOCOCc1cc(CCCCCOc2c(Cl)cc(C3=NCCO3)cc2Cl)on1 [149(b), 5-{5-[2,6-Dichloro-4-(4,5-dihydro-2-oxazolyl)phenoxy]pentyl}-3-isoxazolylmethoxymethoxyethanol]",0.13,1.1
"Cc1cc(CCCCCOc2c(Cl)cc(C3=NCCO3)cc2Cl)sn1 [150(b), 2-{3,5-Dichloro-4-[(5-(3-methyl-5-isothiazolyl)pentyl)oxy]phenyl}-4,5-dihydro-oxazole]",0.12,0.35
"Cc1cc(CCCCCOc2c(Cl)cc(C3=NCCO3)cc2C(F)(F)F)on1 [155(c), 5-{5-[2-Chloro-4-(4,5-dihydro-2-oxazolyl)-6-(trifluoromethyl)phenoxy]pentyl}-3-methylisoxazole]",0.11,0.56
"Cc1cc(CCCCCOc2c(Cl)cc(C(=O)NCCCCl)cc2Cl)on1 [156(a), 3,5-Dichloro-N-(3-chloropropyl)-4-{[5-(3-methyl-5-isoxazolyl)pentyl]oxy}benzamide]",0.795,99
Cc1cc(CCCCCOc2c(Cl)cc(C3=NCCCO3)cc2Cl)on1 [156(b)],0.705,28.6
"Cc1cc(CCCCCCCOc2ccc(C3=N[C@@H](C)CO3)cc2)on1 [Example 4, (-)-5-{7-[4-(4,5-Dihydro-4-methyl-2oxazolyl)phenoxy]heptyl}-3-methylisoxazole]",0.025,0.03
"Cc1cc(CCCCCCCOc2ccc(C3=NC(C)(C)CO3)cc2)on1 [Example 5, 5-{7-[4-(4,5-Dihydro-4,4-dimethyl-2oxazolyl)phenoxy]heptyl}-3-methylisoxazole]",1.3,99
"Cc1cc(CCCCCCCOc2ccc(C3=NCC(CO)O3)cc2)on1 (stereo not shown) [Example 23, 5-{7-[4-(4,5-Dihydro-5-hydroxymethyl-2-oxazolyl)phenoxy]heptyl}-3-methylisoxazole]",1.55,2.9
"Cc1cc(CCCCCCCOc2ccc(C3=NCC(CCl)O3)cc2)on1 (stereo not shown) [Example 39, 5-{7-[4-(5-Choromethyl-4,5-dihydro-2-oxazolyl)phenoxy]heptyl}-3-methylisoxazole]",0.87,99
"COCC1CN=C(c2ccc(OCCCCCCCc3cc(C)no3)cc2)O1 (stereo not shown) [Example 40, 5-{7-[4-(4,5-Dihydro-5-methoxymethyl-2-oxazolyl)phenoxy]heptyl}-3-methylisoxazole]",0.535,99
"Cc1cc(CCC=CCOc2ccc(C3=NCCO3)cc2)on1 [Example 55, 5-{5-[4-(4,5-Dihydro-2-oxazolyl)phenoxy]-3-pentenyl}-3-methylisoxazole]",49.6,99
"Cc1cc(CCCCCOc2ccc(C3=NC(C)(C)CO3)cc2Cl)on1 [Example 57, 5-{5-[2-Chloro-4-(4,5-dihydro-4,4-dimethyl-2-oxazolyl)phenoxy]pentyl}-3-methylisoxazole]",50.1,99
"Cc1cc(CCCCOc2ccc(C3=NC(C)CO3)cc2Cl)on1 (stereo not shown) [Example 65, 5-{4-[2-Chloro-4-(4,5-dihydro-4-methyl-2-oxazolyl)phenoxy]butyl}-3-methylisoxazole]",0.26,0.45
"Cc1cc(CCCCOc2ccc(C3=NC(C)(C)CO3)cc2Cl)on1 [Example 66, 5-{4-[2-Chloro-4-(4,5-dihydro-4,4-dimethyl-2-oxazolyl)phenoxy]butyl}-3-methylisoxazole]",0.78,99
"Cc1cc(CCCCCOc2ccc(C3=NCCO3)c(Cl)c2Cl)on1 [Example 72, 5-{5-[2,3-Dichloro-4-(4,5-dihydro-2-oxazolyl)phenoxy]pentyl}-3-methylisoxazole]",0.27,0.69
"Cc1cc(CCCCCOc2ccc(C3=NCCO3)cc2C(C)(C)C)on1 [Example 76, 5-{5-[4-(4,5-Dihydro-2-oxazolyl)-2-(1,1-dimethylethyl)phenoxy]pentyl}-3-methylisoxazole]",50.1,99
"Cc1cc(CCCCCOc2ccc(-c3nc(C)c(C)o3)cc2C(F)(F)F)on1 [Example 91, 5-{5-[4-(4,5-Dimethyl-2-oxazolyl)-2-trifluoromethylphenoxy]pentyl}-3-methylisoxazole]",0.75,1.4
"Cc1cc(CCCC(C)Oc2c(Cl)cc(C3=NCCO3)cc2Cl)on1 (stereo not shown) [Example 110, 5-{4-[2,6-Dichloro-4-(4,5-dihydro-2-oxazolyl)phenoxy]pentyl}-3-methylisoxazole]",0.24,0.64
"Cc1cc(CC/C=C\COc2c(Cl)cc(C3=NCCO3)cc2Cl)on1 [Example 112, 5-{5-[2,6-Dichloro-4-(4,5-dihydro-2-oxazolyl)phenoxy]-3-pentenyl}-3-methylisoxazole (Z-isomer)]",0.079,0.74
"Cc1cc(CCCCOc2c(Cl)cc(-c3nc(C)c(C)o3)cc2Cl)on1 [Example 120, 5-{4-[2,6-Dichloro-4-(4,5-dimethyl-2-oxazolyl)phenoxy]butyl}-3-methylisoxazole]",0.16,0.67
"Cc1cc(CCCCCOc2ccc(C3=N[C@@H](C)CO3)cc2)on1 [Example 121, (S)-5-{5-[4-(4,5-Dihydro-4-methyl-2-oxazolyl)phenoxy]pentyl}-3-methylisoxazole]",0.09,26
"Cc1cc(CCCCCCCOc2ccc(C3=NC[C@H](C)O3)cc2)on1 [Example 122, (S)-5-{7-[4-(4,5-Dihydro-5-methyl-2-oxazolyl)phenoxy]heptyl}-3-methylisoxazole]",0.24,50.3
"CC[C@H]1COC(c2ccc(OCCCCCCCc3cc(C)no3)cc2)=N1 [Example 124, (S)-5-{7-[4-(4-Ethyl-4,5-dihydro-2oxazolyl)phenoxy]heptyl}-3-methylisoxazole]",0.36,2.4
"CC[C@@H]1COC(c2ccc(OCCCCCCCc3cc(C)no3)cc2)=N1 [Example 125, (R)-5-{7-[4-(4-Ethyl-4,5-dihydro-2-oxazolyl)phenoxy]heptyl}-3-methylisoxazole]",0.69,2.3
